In PubChem BioAssay (NCI):
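Grown in 96-well plates, cells were treated for 48 hours with each compound at five concentrations. Insufficient inhibition: endpoint recorded as highest concentration tested. Abbreviation: GI50, concentration required for 50% inhibition of growth. At the TGI there is no net growth.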

Tests used:
Test in all cases: DTP human tumour cell line panel, 48 h
NCI-H23 lung = test system: NCI-H23 lung
SNB-75 CNS = test system: SNB-75 CNS
DU-145 prostate = test system: DU-145 prostate
HOP-92 NSCLC = test system: HOP-92 NSCLC
MOLT-4 leukemia = test system: MOLT-4 leukemia
SF-295 CNS = test system: SF-295 CNS
SW-620 colon = test system: SW-620 colon
A498 renal = test system: A498 renal
SK-MEL-2 melanoma = test system: SK-MEL-2 melanoma
SR leukemia = test system: SR leukemia

Compound	GI50 (NCI-H23 lung) [µM]	TGI (NCI-H23 lung) [µM]	GI50 (SNB-75 CNS) [µM]	TGI (SNB-75 CNS) [µM]	GI50 (DU-145 prostate) [µM]	TGI (DU-145 prostate) [µM]	GI50 (HOP-92 NSCLC) [µM]	TGI (HOP-92 NSCLC) [µM]	GI50 (MOLT-4 leukemia) [µM]	TGI (MOLT-4 leukemia) [µM]	GI50 (SF-295 CNS) [µM]	TGI (SF-295 CNS) [µM]	GI50 (SW-620 colon) [µM]	TGI (SW-620 colon) [µM]	GI50 (A498 renal) [µM]	TGI (A498 renal) [µM]	GI50 (SK-MEL-2 melanoma) [µM]	TGI (SK-MEL-2 melanoma) [µM]	TGI (SR leukemia) [µM]
CCC(=O)N1C/C(=C/c2ccc(Cl)cc2)C(=O)/C(=C/c2ccc(Cl)cc2)C1	1.44	3.74	1.37	3.1	1.13	2.65	1.66	4.18	0.974	5.87	0.514	2.09	0.287	0.94	1.5	3.04	2.01	3.94	–
C=C1CC(CC)(CCN2C(=O)c3ccccc3C2=O)OC1=O (centres undefined)	–	29.9	–	> 100	–	–	–	–	–	> 100	–	> 100	–	22.9	–	36.8	–	29.2	> 100
CO/N=C(\COc1ccc2c(=O)c3ccccc3oc2c1)c1ccccc1	> 100	> 100	68.8	> 100	22.4	61.4	25.7	64	> 100	> 100	28.7	78.1	55.9	> 100	20.3	47.7	–	–	–
CC(C)N(C(=O)c1cccc(C(=O)N(C(C)C)C(C)C)c1)C(C)C	–	> 100	–	> 100	–	–	–	> 100	–	> 100	–	> 100	–	> 100	–	> 100	–	> 100	> 100
COC(=O)CCC(NC(=S)N/N=C(\C)c1ccc[nH]1)C(=O)OC (centres undefined)	–	> 100	–	> 100	–	–	–	> 100	–	> 100	–	> 100	–	> 100	–	> 100	–	> 100	–
Cc1cc(N(CCC#N)S(=O)(=O)c2ccccc2)ccc1/C=C1\N=C(c2ccc(Cl)cc2)OC1=O	–	> 100	–	–	–	–	–	> 100	–	> 100	–	> 100	–	> 100	–	> 100	–	> 100	–
CCO/C=C1\N=C(c2ccc(Cl)c(Cl)c2)OC1=O	–	> 100	–	> 100	–	–	–	> 100	–	> 100	–	> 100	–	> 100	–	> 100	–	> 100	–
CC(C)C1CO[C@]2(C)CCC(=O)N12 (some centres undefined)	–	> 100	–	> 100	–	–	–	> 100	–	> 100	–	> 100	–	> 100	–	–	–	> 100	> 100
C#CC1(O)CCC2C3CCc4cc(Oc5nc(F)nc(-c6c7ccccc7c7n6CCS7)n5)ccc4C3CC[C@@]21C (some centres undefined)	–	42.7	–	49.1	–	–	–	47	–	> 100	–	30.1	–	> 100	–	–	–	23.9	92.3
O=[N+]([O-])/C=C/c1c(Cl)cccc1Cl	–	16.8	–	32.4	–	20.6	–	12.2	–	–	–	14.5	–	2.18	–	30	–	14	–
c1ccc(-c2nn3c(c2-c2ccnc4cc(OCCN5CCOCC5)ccc24)CCC3)nc1	> 80.6	> 100	59	> 100	75.2	> 100	> 68.9	> 100	51.8	> 100	> 100	> 100	73.2	> 100	> 100	> 100	> 100	> 100	–
COc1cc(CNc2nc3c(N)cc(C(F)(F)F)cc3nc2-c2ccccc2)cc(OC)c1OC	–	> 100	–	> 100	–	–	–	> 100	> 100	> 100	–	> 100	–	> 100	–	> 100	–	> 100	–
ClC(Cl)=C(Cl)C1(Cl)CC1COCc1ccccc1 (centres undefined)	–	> 100	–	> 100	–	–	–	42.8	–	55.1	–	96.2	–	> 100	–	> 100	–	36.7	–
N#C/C(=C/C=C/c1ccco1)C(N)=O	–	–	–	> 10	–	> 10	–	–	–	–	–	> 10	–	> 10	–	–	–	> 10	–
O=c1cccccc1[O-].O=c1cccccc1[O-].O=c1cccccc1[O-].[Eu+3]	–	> 100	–	79	–	–	–	> 100	–	> 100	–	> 100	–	> 100	78.4	> 100	–	> 100	–
CCC[CH2][Sn]([CH2]CCC)([O]C(=O)c1cc(OC)c(OC)cc1OC)[O][Sn]([CH2]CCC)([CH2]CCC)[O]C(=O)c1cc(OC)c(OC)cc1OC	0.313	1.19	0.124	0.7	–	–	0.206	0.564	0.101	0.786	1.1	2.41	0.182	0.536	0.508	1.76	0.173	0.824	–
OCCCCC#Cc1ccccc1C#Cc1ccc(O)cc1	14.3	28.7	13.6	29.3	16.8	33.6	17.4	36.2	9.96	38.9	16.2	32	18.2	37.1	20.7	38.5	20.8	43	–
N#Cc1nc(-c2ccc(F)cc2)oc1S(=O)(=O)N1CCCCC1	2.14	4.92	11.8	25	1.81	3.24	1.76	3.37	2.22	8.21	14.1	27.4	1.89	4.11	14.1	27.4	2.03	4.92	–
CCCn1c(SCCSc2c3ccccc3c(-c3nc(F)nc(F)n3)n2CCC)c2ccccc2c1-c1nc(F)nc(F)n1	–	> 100	–	> 100	–	–	–	> 100	–	> 100	–	> 100	–	32.6	–	–	–	> 100	60.4
O=c1cc(-c2ccccn2)[nH]c2cccc(F)c12	–	> 100	–	> 100	–	–	–	> 100	–	> 100	–	> 100	–	> 100	–	–	–	–	> 100
COc1cc2c(cc1OC)C(C(=O)O)C(c1ccccc1)N(C)C2=O (centres undefined)	–	> 100	–	> 100	–	–	–	–	–	> 100	–	> 100	–	> 100	–	> 100	–	> 100	–
CNC(=O)NCC1OC(n2cnc3c(NC(=O)Nc4ccccc4)ncnc32)C(O[Si](C)(C)C(C)(C)C)C1O[Si](C)(C)C(C)(C)C (centres undefined)	3.17	9.07	2.43	34.1	2.58	5.71	1.56	5.16	–	–	3.84	31.8	–	–	2.03	4.96	2.45	5.54	–
COc1ccc2c(c1)/C(=C\c1ccncc1)C(=O)N2	12.3	43.5	–	–	14.2	34.3	22.4	98	–	–	15.7	72.8	10.4	43.8	–	–	6.12	23.6	–
NC(=N\N=C/c1ccc(O)cc1)/C(N)=N\N=C/c1ccc(O)cc1	> 100	> 100	17.3	43.3	20.2	> 100	60.3	> 100	0.623	> 100	3.3	> 100	> 23.6	> 100	> 100	> 100	> 79	> 100	–
C/C(CC(=O)Nc1cccc(Cl)c1C)=N\NC(N)=S	–	> 100	–	> 100	–	–	–	> 100	–	> 100	–	> 100	–	> 100	–	> 100	–	> 100	–
COC1C(OC(=O)c2ccc(C)[nH]2)C(O)C(Oc2ccc3c(O)c(NC(=O)c4c[nH]c(C(=O)Nc5c(O)c6ccc(OC7OC(C)(C)C(OC)C(OC(=O)c8ccc(C)[nH]8)C7O)c(C)c6oc5=O)c4C)c(=O)oc3c2C)OC1(C)C (centres undefined)	–	3.84	–	4.85	–	–	–	–	–	8.47	–	> 100	–	45.9	–	4.8	–	4.42	–
CC(C)/C=C1\CCC(CN2CCOCC2)C1=O (centres undefined)	–	33.9	–	–	–	–	–	38.9	–	10.2	–	> 77.7	–	8.08	–	> 51.3	–	35.6	13.1
N#C/C(=C1\SCC(=O)N1c1ccccc1)c1nc2ccccc2[nH]1	–	> 100	–	> 100	–	–	–	> 100	–	> 100	–	> 100	–	> 100	–	> 100	–	> 100	–
COc1cc2c(cc1OC)-c1ncc3c(OC)ccc(OC)c3c1C2	–	–	> 100	> 100	28.1	> 100	39.4	> 100	–	–	12.1	42.7	35.1	> 100	–	–	27.3	79	–
COc1ccccc1N=Nc1c(-c2ccccc2)nn(C(=O)CC(=O)Nc2cccc(C)c2)c1-c1ccccc1	–	> 100	–	93.5	–	–	–	–	–	50.6	–	> 100	–	> 100	–	> 100	–	–	–
